The NIST ThermoML archive (doi:10.1016/j.jct.2005.04.006)
Numbers after ± are expanded uncertainties.

Key:
[1] = refractive index (Na D-line) (dimensionless); conditions: 298.15 K; 101.33 kPa; Liquid
[2] = Liquid; for mass density: 298.15 K, 101.33 kPa

Compound | refractive index [1] | mass density [2] [kg/m3] | vapor or sublimation pressure ([2]; 370.55 K) [kPa] | vapor or sublimation pressure ([2]; 340.25 K) [kPa] | vapor or sublimation pressure ([2]; 350.05 K) [kPa] | vapor or sublimation pressure ([2]; 354.15 K) [kPa] | vapor or sublimation pressure ([2]; 409.35 K) [kPa] | vapor or sublimation pressure ([2]; 402.95 K) [kPa]
Cc1ccc(C)cc1 [1,4-dimethylbenzene] | 1.4933 ± 0.0016 | 856.6 ± 2.1 | – | – | – | – | 95.8 ± 5 | –
Clc1ccccc1 [chlorobenzene] | 1.5219 ± 0.0016 | 1100.9 ± 2.9 | – | – | – | – | – | 95.8 ± 5
Cc1cccc(C)c1 [1,3-dimethylbenzene] | 1.4946 ± 0.0016 | 860.1 ± 2.1 | – | – | – | – | 95.8 ± 5 | –

Continued, in another order:

refractive index [1] | mass density [2] [kg/m3] | vapor or sublimation pressure ([2]; 370.55 K) [kPa] | vapor or sublimation pressure ([2]; 340.25 K) [kPa] | vapor or sublimation pressure ([2]; 350.05 K) [kPa] | vapor or sublimation pressure ([2]; 354.15 K) [kPa] | Compound | vapor or sublimation pressure ([2]; 409.35 K) [kPa] | vapor or sublimation pressure ([2]; 402.95 K) [kPa]
1.3889 ± 0.0016 | 687.8 ± 1.5 | 95.8 ± 5 | – | – | – | CC(C)CC(C)(C)C [2,2,4-trimethylpentane] | – | –
1.3723 ± 0.0016 | 654.8 ± 1.4 | – | 95.8 ± 5 | – | – | CCCCCC [hexane] | – | –
1.3594 ± 0.0016 | 784.9 ± 1.8 | – | – | 95.8 ± 5 | – | CCO [ethanol] | – | –
1.3852 ± 0.0016 | 781.2 ± 1.8 | – | – | – | 95.8 ± 5 | CC(C)(C)O [2-methylpropan-2-ol] | – | –
